From patent US8039634B2, “Oxazole hydroxamic acid derivatives and use thereof” (SK Holdings Co., Ltd., priority 2005, dated 2011)
≈ marks a conversion by molar mass, not a printed value.

Assays:
HCT116 = test: In vitro toxicity / growth inhibition (CellTiter-Glo), HCT116; assay type: cell-based; settings: Homo sapiens, HCT-116; HCT116, 48 hr
Procedure: (§1) In order to determine in vitro toxicity of a compound in accordance with the present invention, 18 species of human cancer cell lines (HeLa, cervical cancer cell line; HCT116, SW480, SW620, RKO, colon cancer cell lines; H460, H1299, A549, lung cancer cell lines; MCF7, MDA-MB231, MDA-MB453, breast cancer cell lines; Jurkat, K562, THP1, Ramos, U937, blood cancer cell lines; PC3, DU145, prostate cancer cell lines) were used. Cell lines were cultured in RPMI 1640 culture medium containing penicillin/streptomycin (100 units/mL) and heat-inactivated 5% fetal bovine serum (FBS) under standard culture conditions ([…], 5% CO2, and 100% relative humidity). Thereafter, single cell suspension was obtained via trypsin treatment and pipetting. The suspension was diluted with the same medium such that a cell density is in a range of 8×10^3 to 1.5×10^4 cells/well, and was transferred to a 96-well microtiter plate. After culturing for 24 hours, cell cultures were treated with respective compounds of Examples at various concentrations. […] The above evaluation was carried out according to the methods given in a manufacture's manual. GI50 in Table 1 below refers to a concentration that compounds of Examples cause 50% growth inhibition of various cancer cells.

HDAC = test: Inhibition of HDAC activity (fluorometric, HeLa nuclear extract); assay type: biochemical, human; settings: 30 min room temperature
Procedure: In order to determine inhibitory activity of a compound in accordance with the present invention on HDAC, evaluation was carried out using an aminocoumarin derivative of ω-acetylated lysine as a substrate for an enzyme. As an enzyme source, a nuclear extract obtained from human cervical cancer cell line HeLa cells was used. The above evaluation was carried out with modification of a method based on the details described in Weegener et al. (2003) Analytical Biochemistry, 321, 203-208. That is, […], […] of nuclear extract and a compound of Example 1 at different concentrations were added and maintained at room temperature for 30 min. Trypsin (10 mg/ml) and Trichostatin A (final concentration: […]) were added to the resulting mixture which was reacted at the same temperature for 20 min, thereby terminating the reaction. The enzyme activity-inhibitory concentration of the compound added was determined using a fluorometer. As a control compound, suberoylanilide hydroxamic acid (SAHA) was used. IC50 in Table 1 below refers to a concentration of the compound that leads to a 50% decrease in activity of HDAC.

H460 = test: In vitro toxicity / growth inhibition (CellTiter-Glo), H460; assay type: cell-based; settings: Homo sapiens, NCI-H460; H460, 48 hr
Procedure: as §1

Raw cell = test: Inhibition of LPS-induced NO increases; assay type: cell-based, Mouse; settings: 5 μM compound; for NO: LPS, 18 hours, Griess Reagent; for activity at 5 µM: Mus musculus, 18 h, relative to LPS alone control
Procedure: As one of the methods to confirm anti-inflammatory responses, inhibition of increases in nitric oxide (NO) due to lipopolysaccharide (LPS) was carried out. Mouse cell line (Raw cell) was cultured in RPMI 1640 culture medium containing penicillin/streptomycin (100 units/mL) and heat-inactivated 5% fetal bovine serum (FBS) under standard culture conditions ([…], 5% CO2, 37° C., and 100% relative humidity). Test compounds were dissolved in dimethylsulfoxide (DMSO) and were used as a final concentration of 1 to 40 μM. Cells were proliferated to a cell density of 5×10^3 to 2×10^4 cells on a 24-well plate and were treated with the respective compounds (equal amounts of 5 μM) 1 hour prior to treatment with LPS ([…]). The thus-treated cells were cultured for 18 hours, and thereafter the amounts of NO thus produced were measured using Griess Reagent. Measurement was confirmed using an absorption spectrophotometer at 540 nm. The value was expressed as percentage (%) relative to a control in which LPS alone was treated.

MCF7 = test: In vitro toxicity / growth inhibition (CellTiter-Glo), MCF7; assay type: cell-based; settings: Homo sapiens; MCF7, 48 hr
Procedure: as §1

Solubility = assay type: physicochemical
HeLa = test: In vitro toxicity / growth inhibition (CellTiter-Glo), HeLa; assay type: cell-based; settings: Homo sapiens, 48 hr
Procedure: as §1

Row | SMILES | IC50 (HDAC) | solubility (Solubility) | GI50 (HCT116) | GI50 (H460) | NO (Raw cell) | activity at 5 µM (Raw cell) | GI50 (MCF7) | GI50 (HeLa)
1 | CN(C)c1ccc(-c2nc(CCCCCCC(=O)NO)oc2-c2cccnc2)cc1 [Example 14, 7-[4-(4-dimethylamino-phenyl)-5-pyridin-3-yl-oxazol-2-yl]-heptanoic acid hydroxyamide] | 0.00295 µM | 1000 µg/mL (≈ 2450 µM) | 8.7 µM | 23.5 µM | 69.6 μM/L | 74.4% | 8.7 µM | 7.8 µM
2 | COc1ccc(-c2nc(CCCCCCC(=O)NO)oc2-c2ccc(OC)cc2)cc1 [Example 10, 7-[4,5-bis-(4-methoxy-phenyl)-oxazol-2-yl]-heptanoic acid hydroxyamide] | 0.00047 µM | 200 µg/mL (≈ 471 µM) | 2.4 µM | 9.2 µM |  |  | 0.8 µM | 3 µM
3 | O=C(CCCCCCc1nc(-c2ccccc2)c(-c2ccccc2F)o1)NO [Example 5, 7-[5-(2-fluoro-phenyl)-4-phenyl-oxazol-2-yl]-heptanoic acid hydroxyamide] | 0.00174 µM | 300 µg/mL (≈ 784 µM) | 10.7 µM | 14.2 µM | 69.0 μM/L | 72.7% |  | 3.6 µM
4 | COc1ccccc1-c1oc(CCCCCCC(=O)NO)nc1-c1ccccc1 [Example 2, 7-[5-(2-methoxy-phenyl)-4-phenyl-oxazol-2-yl]-heptanoic acid hydroxyamide] | 0.00661 µM | 400 µg/mL (≈ 1010 µM) | 8.3 µM |  | 77.9 μM/L | 97.8% |  | 9.33 µM
5 | COc1ccc(-c2oc(CCCCCCC(=O)NO)nc2-c2ccccc2OC)cc1 [Example 11, 7-[4-(2-methoxy-phenyl)-5-(4-methoxy-phenyl)-oxazol-2-yl]-heptanoic acid hydroxyamide] | 0.00724 µM | 400 µg/mL (≈ 942 µM) | 2.4 µM | 10.2 µM | 65.0 μM/L | 61.3% |  | 1.2 µM
6 | O=C(CCCCCCc1nc(-c2cccc(F)c2)c(-c2cccnc2)o1)NO [Example 16, 7-[4-(3-fluoro-phenyl)-5-pyridin-3-yl-oxazol-2-yl]-heptanoic acid hydroxyamide] | 0.0323 µM | 1400 µg/mL (≈ 3650 µM) |  | 52.3 µM | 63.0 μM/L | 55.7% |  | 20.7 µM
7 | COc1ccc(-c2nc(CCCCCCC(=O)NO)oc2-c2cccnc2)cc1 [Example 13, 7-[4-(4-methoxy-phenyl)-5-pyridin-3-yl-oxazol-2-yl]-heptanoic acid hydroxyamide] | 0.0145 µM | 900 µg/mL (≈ 2280 µM) | 3.9 µM | 4.4 µM | 57.1 μM/L | 39.2% | 1 µM | 3.9 µM
8 | O=C(CCCCCCc1nc(-c2ccc(F)cc2)c(-c2cccnc2)o1)NO [Example 15, 7-[4-(4-fluoro-phenyl)-5-pyridin-3-yl-oxazol-2-yl]-heptanoic acid hydroxyamide] | 0.0384 µM | 2000 µg/mL (≈ 5220 µM) |  | 69 µM | 66.6 μM/L | 65.8% |  | 30.1 µM

The next lines start with results.

Row | IC50 (HDAC) | solubility (Solubility) | SMILES | GI50 (HCT116) | GI50 (H460) | NO (Raw cell) | activity at 5 µM (Raw cell) | GI50 (MCF7) | GI50 (HeLa)
9 | 0.0195 µM | 900 µg/mL (≈ 2460 µM) | O=C(CCCCCCc1nc(-c2ccccc2)c(-c2ccncc2)o1)NO [Example 17, 7-(4-phenyl-5-pyridin-4-yl-oxazol-2-yl)-heptanoic acid hydroxyamide] | 5.4 µM | 7.3 µM | 59.6 μM/L | 46.1% | 1.8 µM | 3.5 µM
10 | 0.00497 µM |  | O=C(CCCCCCc1nc(-c2ccccc2)c(-c2ccc(F)cc2)o1)NO [Example 9, 7-[5-(4-fluoro-phenyl)-4-phenyl-oxazol-2-yl]-heptanoic acid hydroxyamide] | 5.9 µM | 19.1 µM | 71.4 μM/L | 79.4% |  | 14.2 µM
11 | 0.0012 µM | 200 µg/mL (≈ 490 µM) | CCOc1ccc(-c2oc(CCCCCCC(=O)NO)nc2-c2ccccc2)cc1 [Example 8, 7-[5-(4-ethoxy-phenyl)-4-phenyl-oxazol-2-yl]-heptanoic acid hydroxyamide] | 1.2 µM | 4.2 µM | 63.7 μM/L | 57.7% |  | 1.5 µM
12 | 0.00148 µM | 400 µg/mL (≈ 1050 µM) | O=C(CCCCCCc1nc(-c2ccccc2)c(-c2cccc(F)c2)o1)NO [Example 6, 7-[5-(3-fluoro-phenyl)-4-phenyl-oxazol-2-yl]-heptanoic acid hydroxyamide] | 9.5 µM | 15.8 µM | 70.6 μM/L | 77.1% | 3.8 µM | 10.7 µM
13 | 0.00068 µM | 700 µg/mL (≈ 1710 µM) | CCOc1ccc(-c2oc(CCCCCCC(=O)NO)nc2-c2ccncc2)cc1 [Example 19, 7-[5-(4-ethoxy-phenyl)-4-pyridin-4-yl-oxazol-2-yl]-heptanoic acid hydroxyamide] | 4 µM | 4.1 µM |  |  | 1.1 µM | 2.9 µM
14 | 0.0017 µM | 300 µg/mL (≈ 789 µM) | O=C(CCCCCCc1nc(-c2ccccc2)c(-c2ccc(O)cc2)o1)NO [Example 20, 7-[5-(4-hydroxy-phenyl)-4-phenyl-oxazol-2-yl]-heptanoic acid hydroxyamide] | 1.5 µM | 5.4 µM | 55.9 μM/L | 35.9% |  | 2.4 µM
15 | 0.00501 µM | 700 µg/mL (≈ 1720 µM) | CN(C)c1ccc(-c2oc(CCCCCCC(=O)NO)nc2-c2ccccc2)cc1 [Example 12, 7-[5-(4-dimethylamino-phenyl)-4-phenyl-oxazol-2-yl]-heptanoic acid hydroxyamide] | 9.8 µM | 19.5 µM | 72.9 μM/L | 83.7% | 6.9 µM | 14.1 µM
16 | 0.002 µM | 200 µg/mL (≈ 528 µM) | Cc1ccc(-c2oc(CCCCCCC(=O)NO)nc2-c2ccccc2)cc1 [Example 7, 7-(4-phenyl-5-p-tolyl-oxazol-2-yl)-heptanoic acid hydroxyamide] | 2.7 µM | 9.9 µM |  |  |  | 2.4 µM
17 | 0.014 µM | 900 µg/mL (≈ 2280 µM) | COc1ccc(-c2oc(CCCCCCC(=O)NO)nc2-c2ccncc2)cc1 [Example 18, 7-[5-(4-methoxy-phenyl)-4-pyridin-4-yl-oxazol-2-yl)-heptanoic acid hydroxyamide] | 3.8 µM | 11.7 µM | 68.6 μM/L | 71.6% |  | 9.1 µM
18 | 0.002 µM | 200 µg/mL (≈ 549 µM) | O=C(CCCCCCc1nc(-c2ccccc2)c(-c2ccccc2)o1)NO [Example 4, 7-(4,5-diphenyl-oxazol-2-yl)-heptanoic acid hydroxyamide] | 3.5 µM |  |  |  | 6.6 µM | 2.5 µM
19 | 0.00158 µM | 200 µg/mL (≈ 507 µM) | COc1cccc(-c2oc(CCCCCCC(=O)NO)nc2-c2ccccc2)c1 [Example 3, 7-[5-(3-methoxy-phenyl)-4-phenyl-oxazol-2-yl]-heptanoic acid hydroxyamide] | 6.5 µM |  |  |  |  | 16.9 µM
